Reference: publication PMC8041433 (Environmental Health Perspectives, 2021)
Where “and” joins values, the source holds several entries; their conditions need not be identical. Equal values may be shown once. Read-outs that look alike come from different tables or passages of the source.

Assays:
recombinant human AChE [1] = molecular target: T1, recombinant human AChE (Homo sapiens, UniProt P22303); experiment: biochemical
[2] = molecular target: AChE in neural stem cells (Homo sapiens, UniProt P22303); experiment: cell-based
[3] = molecular target: AChE in SH-SY5Y spheroids (Homo sapiens, UniProt P22303); experiment: cell-based; conditions: potency (IC50)
recombinant human AChE [4] = molecular target: T1, recombinant human AChE
recombinant human AChE [5] = molecular target: T1, recombinant human AChE; experiment: biochemical; remark: listed apart in the source
AChE in SH-SY5Y cells = AChE in SH-SY5Y cells (Homo sapiens, UniProt P22303); experiment: cell-based
[6] = molecular target: AChE in neural stem cell spheroids (Homo sapiens, UniProt P22303); experiment: cell-based
recombinant human AChE [7] = molecular target: T1, recombinant human AChE; experiment: biochemical; remark: listed apart in the source
recombinant human AChE [8] = molecular target: T1, recombinant human AChE; experiment: biochemical; type: biochemical; conditions: for AC50: AC50 (uM)
[9] = potency (IC50), Neural stem cell spheroid (24 h)
[10] = potency (IC50), Neural stem cell spheroid (48 h)
[11] = potency (IC50), Enzyme with microsomes
[12] = potency (IC50), SH-SY5Y cells monolayer
Throughout, for IR or R: key: Reversible (R); Irreversible (IR); ND, not detected in enzyme-based AChE inhibition assay from current study.

T1 sequence (P22303 32-614): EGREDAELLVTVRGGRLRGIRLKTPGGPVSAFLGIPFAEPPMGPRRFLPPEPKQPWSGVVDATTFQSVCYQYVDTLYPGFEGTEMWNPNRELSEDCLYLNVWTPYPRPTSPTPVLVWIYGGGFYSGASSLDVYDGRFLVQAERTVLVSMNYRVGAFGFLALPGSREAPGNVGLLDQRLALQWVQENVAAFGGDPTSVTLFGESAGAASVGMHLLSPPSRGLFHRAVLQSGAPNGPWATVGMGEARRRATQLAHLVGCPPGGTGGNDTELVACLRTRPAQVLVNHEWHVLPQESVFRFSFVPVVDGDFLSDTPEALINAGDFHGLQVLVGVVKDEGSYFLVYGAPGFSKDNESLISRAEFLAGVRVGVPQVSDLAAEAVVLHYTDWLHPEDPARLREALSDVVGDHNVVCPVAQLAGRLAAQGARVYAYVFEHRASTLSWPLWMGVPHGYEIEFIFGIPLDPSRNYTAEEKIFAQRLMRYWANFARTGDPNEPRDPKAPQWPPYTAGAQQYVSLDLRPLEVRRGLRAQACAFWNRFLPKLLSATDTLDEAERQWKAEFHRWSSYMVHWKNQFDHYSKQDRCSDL
AChE in neural stem cell spheroids, sequence (P22303 32-614): as above
AChE in SH-SY5Y spheroids, sequence (P22303 32-614): as above
AChE in SH-SY5Y cells, sequence (P22303 32-614): as above
AChE in neural stem cells, sequence (P22303 32-614): as above

## CCOP(=S)(OCC)SCn1c(=O)oc2cc(Cl)ccc21 [Phosalone]
Recombinant human AChE [1]
  potency (IC50), Enzyme-based assay with heat-inactivated microsomes: Inactive
[2]
  IC50: 17.1 µM
[3]; SH-SY5Y spheroids (24 h)
  IC50: 66.3 µM
[3]; SH-SY5Y spheroids (48 h)
  IC50: 50 µM
Recombinant human AChE [4]
  CC-v2 (curve classes): -1.1
Recombinant human AChE [5]
  AChE inhibition (result in words): did not show effects
  CC-v2 (curve classes): 4
  potency (IC50), Enzyme: Inactive
AChE in SH-SY5Y cells
  CC-v2 (curve classes): -2.2
  potency (IC50), SH-SY5Y cells monolayer: Inactive
AChE in SH-SY5Y cells; IC50 (uM)
  IC50: 56.4 µM and 48.1 µM and 35.6 µM and 76.2 µM
[6]; [9]
  IC50: 9.61 µM
[6]; [10]
  IC50: 10.5 µM
Recombinant human AChE [7]; IC50 (uM)
  IC50: 3.99 µM and 8.55 µM
Recombinant human AChE [7]; [11]
  IC50: 2.91 µM
Recombinant human AChE [8]; activity_5
  AC50: 55.9 µM and 35.2 µM
Recombinant human AChE [8]; activity_10
  AC50: 55.9 µM and 62.7 µM and 49.8 µM
Recombinant human AChE [8]; activity_60
  AC50: 62.7 µM and 55.9 µM

## CCOP(=S)(OCC)SCn1nnc2ccccc2c1=O [Azinphos-ethyl]
Recombinant human AChE [1]
  IC50: 22.5 ± 4.21 µM
[2]
  IC50: 4.79 µM
[3]; SH-SY5Y spheroids (24 h)
  IC50: 25.2 µM
[3]; SH-SY5Y spheroids (48 h)
  IC50: 12 µM
Recombinant human AChE [4]
  CC-v2 (curve classes): -1.1
  Efficacy: -98.316
Recombinant human AChE [5]
  CC-v2 (curve classes): -2.1
  Efficacy: -105.247
Recombinant human AChE [5]; potency (IC50), Enzyme
  IC50: 42.8 µM
AChE in SH-SY5Y cells
  CC-v2 (curve classes): -1.1
AChE in SH-SY5Y cells; IC50 (uM)
  IC50: 12.6 µM and 11.2 µM and 15.9 µM
AChE in SH-SY5Y cells; [12]
  IC50: 10.9 µM
[6]; [9]
  IC50: 2.23 µM
[6]; [10]
  IC50: 4.36 µM
Recombinant human AChE [7]; [11]
  IC50: 2.14 µM
Recombinant human AChE [8]
  AC50: 49.8 µM (2×) and 55.9 µM (2×) and 70.3 µM and 39.5 µM and 44.4 µM

## CCOP(=S)(OCC)Oc1nc(Cl)c(Cl)cc1Cl [Chlorpyrifos, reference compound]
Recombinant human AChE [1]
  IC50: 95.7 ± 6.24 µM
[2]
  IC50: 11.9 µM
[3]; SH-SY5Y spheroids (24 h)
  IC50: 41.7 µM
[3]; SH-SY5Y spheroids (48 h)
  IC50: 36.7 µM
Recombinant human AChE [4]
  CC-v2 (curve classes): -1.1
Recombinant human AChE [5]; IC50 (uM)
  IC50: 89.4 µM and 79.9 µM and 89.6 µM
Recombinant human AChE [5]; potency (IC50), Enzyme
  IC50: 48 µM
AChE in SH-SY5Y cells
  CC-v2 (curve classes): -2.1
AChE in SH-SY5Y cells; IC50 (uM)
  IC50: 35.6 µM and 35.7 µM and 44.9 µM and 63.5 µM
AChE in SH-SY5Y cells; [12]
  IC50: 41.1 µM
AChE in SH-SY5Y cells; read-out: IC50
  IC50: 39.9 µM and 40 µM
[6]; [10]
  IC50: 2.58 µM
[6]; read-out: potency (IC50), Neural stem cell spheroid (24 h)
  IC50: 1.21 µM
Recombinant human AChE [7]; [11]
  IC50: 1.4 µM
Recombinant human AChE [8]
  AC50: 28 µM and 44.4 µM and 62.7 µM and 49.8 µM and 55.9 µM

## Cc1ccc2c(n1)Oc1ccc(C(C)C(=O)OCC(=O)N(C)C)cc1C2 (stereo not drawn) [Mepranoprofen arbamel, reference compound]
Recombinant human AChE [1]
  IC50: 24.3 µM
[2]
  IC50: 12.7 ± 0.85 µM
[3]; SH-SY5Y spheroids (24 h)
  IC50: 7.46 ± 3.5 µM
[3]; SH-SY5Y spheroids (48 h)
  IC50: 18 ± 2.29 µM
Recombinant human AChE [4]
  CC-v2 (curve classes): 4
  Efficacy: 0
Recombinant human AChE [5]
  CC-v2 (curve classes): -2.2 and -1.1
Recombinant human AChE [5]; IC50 (uM)
  IC50: 24.5 µM and 15.5 µM
Recombinant human AChE [5]; potency (IC50), Enzyme
  IC50: 15.4 ± 1.77 µM
AChE in SH-SY5Y cells
  CC-v2 (curve classes): -2.1 and -1.1
AChE in SH-SY5Y cells; IC50 (uM)
  IC50: 15.5 µM and 12.3 µM and 27.5 µM
AChE in SH-SY5Y cells; [12]
  IC50: 19.3 µM
[6]; [9]
  IC50: 12.5 ± 3.49 µM
[6]; [10]
  IC50: 11.3 µM
Recombinant human AChE [7]; [11]
  IC50: 37.3 ± 5.13 µM
Recombinant human AChE [8]
  AC50: 12.2 µM and 13.7 µM and 19.3 µM (3×) and 7.69 µM and 17.2 µM and 9.68 µM

## CNC(=O)Oc1ccccc1C(C)C [Isoprocarb]
Recombinant human AChE [1]
  IC50: 9.21 ± 0.62 µM
[2]
  IC50: 21 ± 9.16 µM
[3]; SH-SY5Y spheroids (24 h)
  IC50: 5.45 ± 4.07 µM
[3]; SH-SY5Y spheroids (48 h)
  IC50: 12.5 µM
Recombinant human AChE [4]
  CC-v2 (curve classes): -2.1
  Efficacy: -88.562
Recombinant human AChE [5]
  CC-v2 (curve classes): -1.1
  Efficacy: -91.575
Recombinant human AChE [5]; potency (IC50), Enzyme
  IC50: 6.55 ± 0.83 µM
AChE in SH-SY5Y cells
  CC-v2 (curve classes): -1.1
AChE in SH-SY5Y cells; IC50 (uM)
  IC50: 3.56 µM and 4.48 µM
AChE in SH-SY5Y cells; [12]
  IC50: 8.21 ± 0.55 µM
[6]
  potency (IC50), Neural stem cell spheroid (24 h): Inactive
[6]; [10]
  IC50: 39.6 µM
Recombinant human AChE [7]; [11]
  IC50: 8.53 ± 0.55 µM
Recombinant human AChE [8]
  IR or R: R
  AC50: 9.93 µM and 14 µM and 17.7 µM and 22.2 µM and 12.5 µM and 4.98 µM and 3.95 µM and 5.59 µM

## COc1ccc(C(=O)NCc2ccc(OCCN(C)C)cc2)cc1OC.Cl [Itopride hydrochloride, reference compound]
Recombinant human AChE [1]
  IC50: 22.6 ± 1.53 µM
[2]
  IC50: 11.2 ± 3.11 µM
[3]; SH-SY5Y spheroids (24 h)
  IC50: 4.44 ± 3.53 µM
[3]; SH-SY5Y spheroids (48 h)
  IC50: 11.2 ± 3.12 µM
Recombinant human AChE [4]
  CC-v2 (curve classes): 4
  Efficacy: 0
Recombinant human AChE [5]
  CC-v2 (curve classes): -2.2
  Efficacy: -69.798
Recombinant human AChE [5]; IC50 (uM)
  IC50: 27.5 µM
Recombinant human AChE [5]; potency (IC50), Enzyme
  IC50: 12.7 ± 0.85 µM
AChE in SH-SY5Y cells
  CC-v2 (curve classes): -1.1 and -2.1
AChE in SH-SY5Y cells; IC50 (uM)
  IC50: 6.92 µM and 4.9 µM and 5.5 µM
AChE in SH-SY5Y cells; [12]
  IC50: 7.68 µM
[6]; [9]
  IC50: 23.5 ± 3.23 µM
[6]; [10]
  IC50: 14.2 µM
Recombinant human AChE [7]; [11]
  IC50: 19.4 ± 2.22 µM
Recombinant human AChE [8]
  IR or R: R
  AC50: 15.3 µM (3×) and 21.7 µM and 17.2 µM and 19.3 µM

## CNC(=O)Oc1cc(C)cc(C(C)C)c1 [Promecarb]
Recombinant human AChE [1]
  IC50: 0.61 ± 0.08 µM
[2]
  IC50: 1.35 ± 0.18 µM
[3]; SH-SY5Y spheroids (24 h)
  IC50: 1.38 ± 1.23 µM
[3]; SH-SY5Y spheroids (48 h)
  IC50: 0.68 ± 0.09 µM
Recombinant human AChE [4]
  CC-v2 (curve classes): -1.1
  Efficacy: -98.92
Recombinant human AChE [5]
  CC-v2 (curve classes): -1.1
  Efficacy: -99.272
Recombinant human AChE [5]; potency (IC50), Enzyme
  IC50: 0.48 ± 0.12 µM
AChE in SH-SY5Y cells
  CC-v2 (curve classes): -1.1
AChE in SH-SY5Y cells; IC50 (uM)
  IC50: 0.633 µM and 0.564 µM
AChE in SH-SY5Y cells; [12]
  IC50: 0.88 ± 0.1 µM
[6]; [9]
  IC50: 0.93 ± 0.07 µM
[6]; [10]
  IC50: 0.66 µM
Recombinant human AChE [7]; [11]
  IC50: 0.68 ± 0.11 µM
Recombinant human AChE [8]
  IR or R: R
Recombinant human AChE [8]; activity_5
  AC50: 1.98 µM and 1.25 µM
Recombinant human AChE [8]; activity_10
  AC50: 0.885 µM and 1.77 µM
Recombinant human AChE [8]; activity_60
  AC50: 0.703 µM and 0.498 µM and 1.11 µM

## CCOP(=S)(OCC)Oc1ccc([N+](=O)[O-])cc1 [Parathion]
Recombinant human AChE [1]
  IC50: 18 ± 2.29 µM
[2]
  IC50: 6.88 µM
[3]; SH-SY5Y spheroids (24 h)
  IC50: 18.1 µM
[3]; SH-SY5Y spheroids (48 h)
  IC50: 10.6 µM
Recombinant human AChE [4]
  CC-v2 (curve classes): -1.1
Recombinant human AChE [5]; potency (IC50), Enzyme
  IC50: 22.8 µM
AChE in SH-SY5Y cells
  CC-v2 (curve classes): -2.1
AChE in SH-SY5Y cells; IC50 (uM)
  IC50: 13.8 µM and 64.1 µM and 71.9 µM
AChE in SH-SY5Y cells; [12]
  IC50: 11.3 µM
[6]; [9]
  IC50: 3.9 µM
[6]; [10]
  IC50: 9.13 µM
Recombinant human AChE [7]; [11]
  IC50: 1.27 µM
Recombinant human AChE [8]; activity_5
  AC50: 24.3 µM and 30.6 µM
Recombinant human AChE [8]; activity_10
  AC50: 27.3 µM and 24.3 µM
Recombinant human AChE [8]; activity_60
  AC50: 21.7 µM and 19.3 µM

## CCOP(=S)(OCC)SCSP(=S)(OCC)OCC [Ethion]
Recombinant human AChE [1]
  IC50: 58.7 ± 10.6 µM
[2]
  IC50: 7.03 ± 3.56 µM
[3]; SH-SY5Y spheroids (24 h)
  IC50: 31.9 ± 21.6 µM
[3]; SH-SY5Y spheroids (48 h)
  IC50: 42.8 ± 2.79 µM
Recombinant human AChE [4]
  CC-v2 (curve classes): -1.1
  Efficacy: -94.606
Recombinant human AChE [5]
  CC-v2 (curve classes): -2.1
  Efficacy: -121.235
Recombinant human AChE [5]; potency (IC50), Enzyme
  IC50: 7.92 ± 0.91 µM
AChE in SH-SY5Y cells
  CC-v2 (curve classes): -2.1
AChE in SH-SY5Y cells; IC50 (uM)
  IC50: 39.9 µM and 35.6 µM and 31.7 µM
AChE in SH-SY5Y cells; [12]
  IC50: 17 ± 1.1 µM
[6]; [9]
  IC50: 0.09 ± 0.02 µM
[6]; [10]
  IC50: 0.48 ± 0.46 µM
Recombinant human AChE [7]; [11]
  IC50: 11.1 µM
Recombinant human AChE [8]
  AC50: 49.8 µM (3×) and 55.9 µM (3×) and 88.5 µM and 62.7 µM
